The numbers were not newly measured in patent publication US20250249020A1, “COLLOIDALLY STABLE HEME-ALBUMIN COMPLEXES AND METHODS OF MAKING AND USING THEREOF” (Ohio State Innovation Foundation, priority 2022, published 2025), which cites them from elsewhere.

In this series the target is Hpx. Conditions: heme binding, background.

Broadly, the Kd is a measure of binding affinity in units of concentration. On to `C=CC1=C(C)c2cc3[n-]c(cc4[n-]c(cc5nc(cc1n2)C(C)=C5C=C)c(C)c4CCC(=O)O)c(CCC(=O)O)c3C.[Fe+2]` [heme], for which the Kd is around 0.01 µM.
